Patent publication US10683299B2, “Pyrazolopyrazine and triazolopyrazine compounds for the treatment of infectious diseases” (Hoffmann-La Roche Inc., priority 2017, dated 2020)
pEC50: −log10 of the molar value.

The compounds below were run on HBV replication in HepG2.2.15 cells (assay: HBV inhibition assay in HepG2.2.15 cells (extracellular HBV DNA by qPCR)). Conditions: Hepatitis B virus, HepG2.2.15, 120 h, five days after compound treatment, extracellular HBV DNA in culture supernatant by qPCR, read-out: EC50 (effective compound concentration at which HBV replication was inhibited by 50%).
Type: cell-based, Hepatitis B virus
Text: HepG2.2.15 is a stably-transfected cell line containing the HBV genome. It is derived from the hepatoblastoma cell line Hep G2 (American Type Culture Collection, ATCC® HB-8065™) by the published procedures described in reference: M A Selles et al. Proc. Natl. Acad. Sci. USA 1987, 84, 1005-1009. The cell line was maintained in Dulbecco's modified Eagle's medium and nutrient mixture F-12 (DMEM/F-12, Gibco, Cat. #: 11320-033) supplemented with 10% fetal bovine serum (Gibco, Cat. #:10099-141), 100 U/mL penicillin, 100 μg/mL streptomycin (Gibco, Cat. #:15140-122), and 0.3 mg/mL of G418 Sulfate (Gibco, Cat. #: 10131-027).
HepG2.2.15 cells were seeded into 96-well plates at a density of 3×10^4 cells per well in culture media of 100 μL DMEM/F-12 supplemented with 2.5% fetal bovine serum, 100 U/mL penicillin, 100 μg/mL streptomycin and cultured overnight at 37° C. The test compounds were serially half-log diluted in DMSO, then diluted 100 times in culture media. 100 μL culture media containing diluted compounds were added into the plates to reach 0.5% final concentration of DMSO in every well. Five days after compound treatment, culture supernatant was collected for further analysis.
For quantitative PCR detection of extracellular HBV DNA, culture supernatant was processed by 500 μg/mL Proteinase K (Sigma, Cat. #:P2308) digestion at 50° C. for 1 hour. After heat inactivation of the enzyme at 95° C. for 15 minutes, the samples were subjected to HBV DNA quantification by qPCR. The effective compound concentration at which HBV replication was inhibited by 50% (EC50) was determined.
C[C@H]1Cn2ncc(N3CCCS3(=O)=O)c2CN1C(=O)Nc1cc(F)c(F)c(F)c1 [Example 1, (6S)-3-(1,1-dioxo-1,2-thiazolidin-2-yl)-6-methyl-N-(3,4,5-trifluorophenyl)-6,7-dihydro-4H-pyrazolo[1,5-a]pyrazine-5-carboxamide] was tested, and the pEC50 was 8.34.
In the case of C[C@H]1Cn2ncc(N3CCCS3(=O)=O)c2CN1C(=O)Nc1ccnc(Cl)c1 [Example 2, (6S)—N-(2-chloro-4-pyridyl)-3-(1,1-dioxo-1,2-thiazolidin-2-yl)-6-methyl-6,7-dihydro-4H-pyrazolo[1,5-a]pyrazine-5-carboxamide], the pEC50 was 7.10.
Compound C[C@H]1Cn2ncc(N3CCCS3(=O)=O)c2CN1C(=O)Nc1ccc(Cl)c(F)c1 [Example 3, (6S)—N-(4-chloro-3-fluoro-phenyl)-3-(1,1-dioxo-1,2-thiazolidin-2-yl)-6-methyl-6,7-dihydro-4H-pyrazolo[1,5-a]pyrazine-5-carboxamide] has a pEC50 of 7.44.
For Cc1cc(NC(=O)N2Cc3c(N4CCCS4(=O)=O)cnn3C[C@@H]2C)ccc1F [Example 4, (6S)-3-(1,1-dioxo-1,2-thiazolidin-2-yl)-N-(4-fluoro-3-methyl-phenyl)-6-methyl-6,7-dihydro-4H-pyrazolo[1,5-a]pyrazine-5-carboxamide], the pEC50 was 8.22.
In the case of C[C@H]1Cn2ncc(N3CCCS3(=O)=O)c2CN1C(=O)Nc1ccc(F)c(C#N)c1 [Example 5, (6S)—N-(3-cyano-4-fluoro-phenyl)-3-(1,1-dioxo-1,2-thiazolidin-2-yl)-6-methyl-6,7-dihydro-4H-pyrazolo[1,5-a]pyrazine-5-carboxamide], the pEC50 was 7.85.
Compound C[C@H]1Cn2ncc(N3CCCS3(=O)=O)c2CN1C(=O)Nc1ccnc(C(F)F)c1 [Example 6, (6S)—N-[2-(difluoromethyl)-4-pyridyl]-3-(1,1-dioxo-1,2-thiazolidin-2-yl)-6-methyl-6,7-dihydro-4H-pyrazolo[1,5-a]pyrazine-5-carboxamide] has a pEC50 of 7.08.
C[C@H]1Cn2ncc(N3CCCS3(=O)=O)c2CN1C(=O)Nc1ccc(F)c(C(F)(F)F)c1 [Example 7, (6S)-3-(1,1-dioxo-1,2-thiazolidin-2-yl)-N-[4-fluoro-3-(trifluoromethyl)phenyl]-6-methyl-6,7-dihydro-4H-pyrazolo[1,5-a]pyrazine-5-carboxamide] was tested, and the pEC50 was 8.01.
With C[C@H]1Cn2ncc(N3CCCS3(=O)=O)c2CN1C(=O)Nc1ccccc1F [Example 8, (6S)-3-(1,1-dioxo-1,2-thiazolidin-2-yl)-N-(2-fluorophenyl)-6-methyl-6,7-dihydro-4H-pyrazolo[1,5-a]pyrazine-5-carboxamide] the pEC50 was 6.52.
For C[C@H]1Cn2ncc(N3CCCS3(=O)=O)c2CN1C(=O)Nc1ccc2ncsc2c1 [Example 9, (6S)—N-(1,3-benzothiazol-6-yl)-3-(1,1-dioxo-1,2-thiazolidin-2-yl)-6-methyl-6,7-dihydro-4H-pyrazolo[1,5-a]pyrazine-5-carboxamide], the pEC50 was 6.59.
In the case of C[C@H]1Cn2ncc(N3CCCS3(=O)=O)c2CN1C(=O)Nc1ccsc1 [Example 10, (6S)-3-(1,1-dioxo-1,2-thiazolidin-2-yl)-6-methyl-N-(3-thienyl)-6,7-dihydro-4H-pyrazolo[1,5-a]pyrazine-5-carboxamide], the pEC50 was 6.24.
C[C@H]1Cn2ncc(N3CCCS3(=O)=O)c2CN1C(=O)NCc1ccccc1 [Example 11, (6S)—N-benzyl-3-(1,1-dioxo-1,2-thiazolidin-2-yl)-6-methyl-6,7-dihydro-4H-pyrazolo[1,5-a]pyrazine-5-carboxamide] was tested, and the pEC50 was 6.96.
Work on C[C@H]1Cn2ncc(N3CC4COCCN4S3(=O)=O)c2CN1C(=O)Nc1cc(F)c(F)c(F)c1 (stereo partly drawn) [Example 12, (6S)-3-(1,1-dioxo-3a,4,6,7-tetrahydro-3H-[1,2,5]thiadiazolo[3,2-c][1,4]oxazin-2-yl)-6-methyl-N-(3,4,5-trifluorophenyl)-6,7-dihydro-4H-pyrazolo[1,5-a]pyrazine-5-carboxamide] yielded a pEC50 of 7.40.
For C[C@H]1Cn2ncc(N3CCN(C(=O)OCc4ccccc4)CS3(=O)=O)c2CN1C(=O)Nc1cc(F)c(F)c(F)c1 [Example 13, Benzyl 2-[(6S)-6-methyl-5-[(3,4,5-trifluorophenyl)carbamoyl]-6,7-dihydro-4H-pyrazolo[1,5-a]pyrazin-3-yl]-1,1-dioxo-1,2,5-thiadiazinane-5-carboxylate], the pEC50 was 7.28.
C[C@H]1Cn2ncc(N3CC4CCC(=O)N4CS3(=O)=O)c2CN1C(=O)Nc1cc(F)c(F)c(F)c1 (stereo partly drawn) [Example 14, (6S)-6-methyl-N-(3,4,5-trifluorophenyl)-3-(3,3,6-trioxo-4,7,8,8a-tetrahydro-1H-pyrrolo[2,1-d][1,2,5]thiadiazin-2-yl)-6,7-dihydro-4H-pyrazolo[1,5-a]pyrazine-5-carboxamide] showed a pEC50 of 7.55.
CC(=O)N1CCN(c2cnn3c2CN(C(=O)Nc2cc(F)c(F)c(F)c2)[C@@H](C)C3)S(=O)(=O)C1 [Example 15, (6S)-3-(5-acetyl-1,1-dioxo-1,2,5-thiadiazinan-2-yl)-6-methyl-N-(3,4,5-trifluorophenyl)-6,7-dihydro-4H-pyrazolo[1,5-a]pyrazine-5-carboxamide] showed a pEC50 of 7.59.
CC1CCS(=O)(=O)N1c1cnn2c1CN(C(=O)Nc1cc(F)c(F)c(F)c1)[C@@H](C)C2 (stereo partly drawn) [Example 16, (6S)-6-methyl-3-(3-methyl-1,1-dioxo-1,2-thiazolidin-2-yl)-N-(3,4,5-trifluorophenyl)-6,7-dihydro-4H-pyrazolo[1,5-a]pyrazine-5-carboxamide] gave a pEC50 of 8.05.
With C[C@H]1Cn2ncc(N3CCC[S+]3[O-])c2CN1C(=O)Nc1cc(F)c(F)c(F)c1 (stereo partly drawn) [Example 17, (6S)-6-methyl-3-(1-oxo-1,2-thiazolidin-2-yl)-N-(3,4,5-trifluorophenyl)-6,7-dihydro-4H-pyrazolo[1,5-a]pyrazine-5-carboxamide] the pEC50 was 7.07.
Compound C[C@H]1Cn2ncc(N3CC(O)CS3(=O)=O)c2CN1C(=O)Nc1cc(F)c(F)c(F)c1 (stereo partly drawn) [Example 18, (6S)-3-(4-hydroxy-1,1-dioxo-1,2-thiazolidin-2-yl)-6-methyl-N-(3,4,5-trifluorophenyl)-6,7-dihydro-4H-pyrazolo[1,5-a]pyrazine-5-carboxamide] has a pEC50 of 7.92.
Work on C[C@H]1Cn2ncc(N3CCNS3(=O)=O)c2CN1C(=O)Nc1cc(F)c(F)c(F)c1 [Example 19, (6S)-3-(1,1-dioxo-1,2,5-thiadiazolidin-2-yl)-6-methyl-N-(3,4,5-trifluorophenyl)-6,7-dihydro-4H-pyrazolo[1,5-a]pyrazine-5-carboxamide] yielded a pEC50 of 7.85.
In the case of C[C@H]1Cn2ncc(N3CCN(C)S3(=O)=O)c2CN1C(=O)Nc1cc(F)c(F)c(F)c1 [Example 20, (6S)-6-methyl-3-(5-methyl-1,1-dioxo-1,2,5-thiadiazolidin-2-yl)-N-(3,4,5-trifluorophenyl)-6,7-dihydro-4H-pyrazolo[1,5-a]pyrazine-5-carboxamide], the pEC50 was 7.77.
Work on C[C@H]1Cn2ncc(N3[C@@H](C)CS3(=O)=O)c2CN1C(=O)Nc1cc(F)c(F)c(F)c1 [Example 21, (6S)-6-methyl-3-[(3S)-3-methyl-1,1-dioxo-thiazetidin-2-yl]-N-(3,4,5-trifluorophenyl)-6,7-dihydro-4H-pyrazolo[1,5-a]pyrazine-5-carboxamide] yielded a pEC50 of 7.34.
With C[C@H]1Cn2ncc(N3[C@@H](C)CNS3(=O)=O)c2CN1C(=O)Nc1cc(F)c(F)c(F)c1 [Example 22, (6S)-6-methyl-3-[(3S)-3-methyl-1,1-dioxo-1,2,5-thiadiazolidin-2-yl]-N-(3,4,5-trifluorophenyl)-6,7-dihydro-4H-pyrazolo[1,5-a]pyrazine-5-carboxamide] the pEC50 was 7.57.
CC1NS(=O)(=O)N(c2cnn3c2CN(C(=O)Nc2cc(F)c(F)c(F)c2)[C@@H](C)C3)[C@H]1C (stereo partly drawn) [Example 23, (6S)-3-[(3S)-3,4-dimethyl-1,1-dioxo-1,2,5-thiadiazolidin-2-yl]-6-methyl-N-(3,4,5-trifluorophenyl)-6,7-dihydro-4H-pyrazolo[1,5-a]pyrazine-5-carboxamide] showed a pEC50 of 7.28.
C[C@H]1Cn2ncc(N3CCOCS3(=O)=O)c2CN1C(=O)Nc1cc(F)c(F)c(F)c1 [Example 24, (6S)-3-(3,3-dioxo-1,3,4-oxathiazinan-4-yl)-6-methyl-N-(3,4,5-trifluorophenyl)-6,7-dihydro-4H-pyrazolo[1,5-a]pyrazine-5-carboxamide] showed a pEC50 of 7.96.

Same assay, conditions: five days after compound treatment, extracellular HBV DNA in culture supernatant by qPCR, read-out: EC50 (effective compound concentration at which HBV replication was inhibited by 50%)
Compound CC1Cn2nnc(N3CCCS3(=O)=O)c2CN1C(=O)Nc1cc(F)c(F)c(F)c1 (single isomer, unassigned) [Example 33-1, 3-(1,1-dioxo-1,2-thiazolidin-2-yl)-6-methyl-N-(3,4,5-trifluorophenyl)-6,7-dihydro-4H-triazolo[1,5-a]pyrazine-5-carboxamide] has a pEC50 of 7.62.
CC1Cn2nnc(N3CCCS3(=O)=O)c2CN1C(=O)Nc1cc(F)c(F)c(F)c1 (single isomer, unassigned) [Example 33-2, 3-(1,1-dioxo-1,2-thiazolidin-2-yl)-6-methyl-N-(3,4,5-trifluorophenyl)-6,7-dihydro-4H-triazolo[1,5-a]pyrazine-5-carboxamide] gave a pEC50 of 6.39.
